Here are results for one compound from ChEMBL document CHEMBL1132815, “16Beta-hydroxy-5alpha-cholestane-3,6-dione, a novel cytotoxic oxysterol from the red alga Jania rubens” (2000).

The test system of test [1] is KB. The test is described as follows: Cytotoxicity (dichloromethane extract) was evaluated against KB tumor cell line. It counts as functional. The note with it: Homo sapiens, read-out: ID50 (the source's name).
Test [2] has as its system KB. As to the kind of experiment: Cytotoxicity (extracted with dichloromethane-methanol) was evaluated against KB tumor cell line. It counts as functional. Conditions: Homo sapiens, read-out: ID50 (the source's name).

Values after ≈ are worked out from the molar mass of the structure shown.

`CC(C)CCC[C@@H](C)[C@H]1[C@@H](O)C[C@H]2[C@@H]3CC(=O)[C@H]4CC(=O)CC[C@]4(C)[C@H]3CC[C@]12C`: the IC50 with KB [1] is 5 µg/mL (≈ 12 µM); with KB [2], 0.5 µg/mL (≈ 1.2 µM).
